Data on 25 compounds can be found in patent US10513522B2, “Azetidinyl phenyl, pyridyl or pyrazinyl carboxamide derivatives as JAK inhibitors” (Incyte Corporation, priority 2011, dated 2019).

The test relates to human JAK1 (a.a. 837-1142). The test is described as follows: In vitro JAK kinase assay (HTRF, phosphorylation of biotinylated peptide), JAK1. Format: biochemical. As to conditions: ratio of IC50 at 1 mM ATP. (In general: Time-resolved FRET reads energy transfer from a long-lived donor to a nearby acceptor.)
Description: The catalytic activity of JAK1, JAK2 or JAK3 was assayed by measuring the phosphorylation of a biotinylated peptide. The phosphorylated peptide was detected by homogenous time resolved fluorescence (HTRF). […] Reactions were carried out at room temperature for 1 hour and then stopped with 20 μL 45 mM EDTA, 300 nM SA-APC, 6 nM Eu-Py20 in assay buffer (Perkin Elmer, Boston, Mass.). Binding to the Europium labeled antibody took place for 40 minutes and HTRF signal was measured on a Fusion plate reader (Perkin Elmer, Boston, Mass.).
As for `N#CCC1(n2cc(-c3ncnc4[nH]ccc34)cn2)CN(c2cc(F)c(C(=O)NCC(F)F)cc2F)C1` [Example 37, 4-{3-(Cyanomethyl)-3-[4-(7H-pyrrolo[2,3-d]pyrimidin-4-yl)-1H-pyrazol-1-yl]azetidin-1-yl}-N-(2,2-difluoroethyl)-2,5-difluorobenzamide], the JAK2/JAK1 entry is listed as “A (A means greater than or equal to 10)”. With `CC(C)NC(=O)c1cc(F)c(N2CC(CC#N)(n3cc(-c4ncnc5[nH]ccc45)cn3)C2)cc1F` [Example 6, 4-{3-(Cyanomethyl)-3-[4-(7H-pyrrolo[2,3-d]pyrimidin-4-yl)-1H-pyrazol-1-yl]azetidin-1-yl}-2,5-difluoro-N-isopropylbenzamide], the JAK2/JAK1 result was “A (A means greater than or equal to 10)”. Under `C[C@H](NC(=O)c1cnc(N2CC(CC#N)(n3cc(-c4ccnc5[nH]ccc45)cn3)C2)cn1)C1CC1` [Example 41, 5-{3-(Cyanomethyl)-3-[4-(1H-pyrrolo[2,3-b]pyridin-4-yl)-1H-pyrazol-1-yl]azetidin-1-yl}-N-[(1S)-1-cyclopropylethyl]pyrazine-2-carboxamide] stands “A (A means greater than or equal to 10)”; under `C[C@@H](NC(=O)c1cnc(N2CC(CC#N)(n3cc(-c4ncnc5[nH]ccc45)cn3)C2)cn1)C(F)(F)F` [Example 30, 5-{3-(Cyanomethyl)-3-[4-(7H-pyrrolo[2,3-d]pyrimidin-4-yl)-1H-pyrazol-1-yl]azetidin-1-yl}-N-[(1R)-2,2,2-trifluoro-1-methylethyl]pyrazine-2-carboxamide], “A (A means greater than or equal to 10)”; under `C[C@H](NC(=O)c1ccc(N2CC(CC#N)(n3cc(-c4ncnc5[nH]ccc45)cn3)C2)c(F)c1)C(F)(F)F` [Example 10, 4-{3-(Cyanomethyl)-3-[4-(7H-pyrrolo[2,3-d]pyrimidin-4-yl)-1H-pyrazol-1-yl]azetidin-1-yl}-3-fluoro-N-[(1S)-2,2,2-trifluoro-1-methylethyl]benzamide], “A (A means greater than or equal to 10)”. Under `CC(NC(=O)c1ccc(N2CC(CC#N)(n3cc(-c4ncnc5[nH]ccc45)cn3)C2)cc1)C1CCN(C)CC1` (stereo not shown) [Example 20, 4-{3-(Cyanomethyl)-3-[4-(7H-pyrrolo[2,3-d]pyrimidin-4-yl)-1H-pyrazol-1-yl]azetidin-1-yl}-N-[1-(1-methylpiperidin-4-yl)ethyl]benzamide] stands “A (A means greater than or equal to 10)”; under `C[C@H](NC(=O)c1ccc(N2CC(CC#N)(n3cc(-c4ncnc5[nH]ccc45)cn3)C2)cc1F)C1CCCCC1` [Example 15, 4-{3-(Cyanomethyl)-3-[4-(7H-pyrrolo[2,3-d]pyrimidin-4-yl)-1H-pyrazol-1-yl]azetidin-1-yl}-N-[(1S)-1-cyclohexylethyl]-2-fluorobenzamide], “A (A means greater than or equal to 10)”; under `CC(C)NC(=O)c1cc(Cl)c(N2CC(CC#N)(n3cc(-c4ncnc5[nH]ccc45)cn3)C2)cc1F` [Example 8, 5-Chloro-4-{3-(cyanomethyl)-3-[4-(7H-pyrrolo[2,3-d]pyrimidin-4-yl)-1H-pyrazol-1-yl]azetidin-1-yl}-2-fluoro-N-isopropylbenzamide], “A (A means greater than or equal to 10)”. Under `N#CCC1(n2cc(-c3ncnc4[nH]ccc34)cn2)CN(c2ccc(C(=O)NC3CC(F)(F)C3)nc2)C1` [Example 12, 5-{3-(Cyanomethyl)-3-[4-(7H-pyrrolo[2,3-d]pyrimidin-4-yl)-1H-pyrazol-1-yl]azetidin-1-yl}-N-(3,3-difluorocyclobutyl)pyridine-2-carboxamide] stands “A (A means greater than or equal to 10)”; under `N#CCC1(n2cc(-c3ncnc4[nH]ccc34)cn2)CN(c2ccc(C(=O)N[C@@H](C3CC3)C(F)(F)F)cc2)C1` [Example 38, 4-{3-(Cyanomethyl)-3-[4-(7H-pyrrolo[2,3-d]pyrimidin-4-yl)-1H-pyrazol-1-yl]azetidin-1-yl}-N-[(1S)-1-cyclopropyl-2,2,2-trifluoroethyl]benzamide], “A (A means greater than or equal to 10)”; under `CC[C@@H](C)NC(=O)c1ccc(N2CC(CC#N)(n3cc(-c4ncnc5[nH]ccc45)cn3)C2)cc1.O=C(O)C(F)(F)F.O=C(O)C(F)(F)F` [Example 25, 4-{3-(Cyanomethyl)-3-[4-(7H-pyrrolo[2,3-d]pyrimidin-4-yl)-1H-pyrazol-1-yl]azetidin-1-yl}-N-[(1R)-1-methylpropyl]benzamide bis(trifluoroacetate)], “A (A means greater than or equal to 10)”. With `C[C@@H](NC(=O)c1ccc(N2CC(CC#N)(n3cc(-c4ncnc5[nH]ccc45)cn3)C2)cc1F)C1CC1` [Example 39, 4-{3-(Cyanomethyl)-3-[4-(7H-pyrrolo[2,3-d]pyrimidin-4-yl)-1H-pyrazol-1-yl]azetidin-1-yl}-N-[(1R)-1-cyclopropylethyl]-2-fluorobenzamide], the JAK2/JAK1 result was “A (A means greater than or equal to 10)”.

As for `N#CCC1(n2cc(-c3ncnc4[nH]ccc34)cn2)CN(c2cnc(C(=O)NC3(C(F)(F)F)CC3)cn2)C1` [Example 33, 5-{3-(Cyanomethyl)-3-[4-(7H-pyrrolo[2,3-d]pyrimidin-4-yl)-1H-pyrazol-1-yl]azetidin-1-yl}-N-[1-(trifluoromethyl)cyclopropyl]pyrazine-2-carboxamide], the JAK2/JAK1 entry was “A (A means greater than or equal to 10)”. Under `C[C@H](NC(=O)c1cnc(N2CC(CC#N)(n3cc(-c4ncnc5[nH]ccc45)cn3)C2)cn1)C(F)(F)F` [Example 31, 5-{3-(Cyanomethyl)-3-[4-(7H-pyrrolo[2,3-d]pyrimidin-4-yl)-1H-pyrazol-1-yl]azetidin-1-yl}-N-[(1S)-2,2,2-trifluoro-1-methylethyl]pyrazine-2-carboxamide] stands “A (A means greater than or equal to 10)”; under `C[C@H](NC(=O)c1ccc(N2CC(CC#N)(n3cc(-c4ccnc5[nH]ccc45)cn3)C2)cn1)C1CC1` [Example 2, 5-{3-(Cyanomethyl)-3-[4-(1H-pyrrolo[2,3-b]pyridin-4-yl)-1H-pyrazol-1-yl]azetidin-1-yl}-N-[(1S)-1-cyclopropylethyl]pyridine-2-carboxamide], “A (A means greater than or equal to 10)”. Then `CC(C)NC(=O)c1ccc(N2CC(CC#N)(n3cc(-c4ccnc5[nH]ccc45)cn3)C2)cc1` [Example 1, 4-{3-(Cyanomethyl)-3-[4-(1H-pyrrolo[2,3-b]pyridin-4-yl)-1H-pyrazol-1-yl]azetidin-1-yl}-N-isopropylbenzamide], with “A (A means greater than or equal to 10)”; and `C[C@H](NC(=O)c1ccc(N2CC(CC#N)(n3cc(-c4ncnc5[nH]ccc45)cn3)C2)cn1)C1CC1` [Example 11, 5-{3-(Cyanomethyl)-3-[4-(7H-pyrrolo[2,3-d]pyrimidin-4-yl)-1H-pyrazol-1-yl]azetidin-1-yl}-N-[(1S)-1-cyclopropylethyl]pyridine-2-carboxamide], with “A (A means greater than or equal to 10)”; and `N#CCC1(n2cc(-c3ncnc4[nH]ccc34)cn2)CN(c2cnc(C(=O)N[C@@H](C3CC3)C(F)(F)F)cn2)C1` [Example 32, 5-{3-(Cyanomethyl)-3-[4-(7H-pyrrolo[2,3-d]pyrimidin-4-yl)-1H-pyrazol-1-yl]azetidin-1-yl}-N-[(1S)-1-cyclopropyl-2,2,2-trifluoroethyl]pyrazine-2-carboxamide], with “A (A means greater than or equal to 10)”. Under `CN(C(=O)c1ccc(N2CC(CC#N)(n3cc(-c4ncnc5[nH]ccc45)cn3)C2)c(F)c1)C1CC1` [Example 7, 4-{3-(Cyanomethyl)-3-[4-(7H-pyrrolo[2,3-d]pyrimidin-4-yl)-1H-pyrazol-1-yl]azetidin-1-yl}-N-cyclopropyl-3-fluoro-N-methylbenzamide] stands “A (A means greater than or equal to 10)”; under `C[C@H](NC(=O)c1cc(F)c(N2CC(CC#N)(n3cc(-c4ncnc5[nH]ccc45)cn3)C2)cc1F)C(F)(F)F` [Example 28, 4-{3-(Cyanomethyl)-3-[4-(7H-pyrrolo[2,3-d]pyrimidin-4-yl)-1H-pyrazol-1-yl]azetidin-1-yl}-2,5-difluoro-N-[(1S)-2,2,2-trifluoro-1-methylethyl]benzamide], “A (A means greater than or equal to 10)”. For `C[C@@H](NC(=O)c1cc(F)c(N2CC(CC#N)(n3cc(-c4ncnc5[nH]ccc45)cn3)C2)cc1F)C1CC1` [Example 21, 4-{3-(Cyanomethyl)-3-[4-(7H-pyrrolo[2,3-d]pyrimidin-4-yl)-1H-pyrazol-1-yl]azetidin-1-yl}-N-[(1R)-1-cyclopropylethyl]-2,5-difluorobenzamide], the JAK2/JAK1 entry is on record as “A (A means greater than or equal to 10)”. With `N#CCC1(n2cc(-c3ncnc4[nH]ccc34)cn2)CN(c2ccc(C(=O)NC3(C(F)(F)F)CC3)nc2)C1` [Example 17, 5-{3-(Cyanomethyl)-3-[4-(7H-pyrrolo[2,3-d]pyrimidin-4-yl)-1H-pyrazol-1-yl]azetidin-1-yl}-N-[1-(trifluoromethyl)cyclopropyl]pyridine-2-carboxamide], the JAK2/JAK1 result is on record as “A (A means greater than or equal to 10)”. As to `N#CCC1(n2cc(-c3ccnc4[nH]ccc34)cn2)CN(c2cnc(C(=O)N[C@@H](C3CC3)C(F)(F)F)cn2)C1` [Example 42, 5-{3-(Cyanomethyl)-3-[4-(1H-pyrrolo[2,3-b]pyridin-4-yl)-1H-pyrazol-1-yl]azetidin-1-yl}-N-[(1S)-1-cyclopropyl-2,2,2-trifluoroethyl]pyrazine-2-carboxamide], the JAK2/JAK1 entry is listed as “A (A means greater than or equal to 10)”. Under `N#CCC1(n2cc(-c3ccnc4[nH]ccc34)cn2)CN(c2ccc(C(=O)NC3(C(F)(F)F)CC3)nc2)C1` [Example 40, 5-{3-(Cyanomethyl)-3-[4-(1H-pyrrolo[2,3-b]pyridin-4-yl)-1H-pyrazol-1-yl]azetidin-1-yl}-N-[1-(trifluoromethyl)cyclopropyl]pyridine-2-carboxamide] stands “A (A means greater than or equal to 10)”. Take `CC(C)NC(=O)c1ccc(N2CC(CC#N)(n3cc(-c4ccnc5[nH]ccc45)cn3)C2)c(F)c1` [Example 27, 4-{3-(Cyanomethyl)-3-[4-(1H-pyrrolo[2,3-b]pyridin-4-yl)-1H-pyrazol-1-yl]azetidin-1-yl}-3-fluoro-N-isopropylbenzamide]: the JAK2/JAK1 entry is “A (A means greater than or equal to 10)”.
